Laboratory results as given in patent US20240197724A1, “THERAPEUTIC AGENT FOR GAIT DISTURBANCE” (NIPPON SHINYAKU CO., LTD., priority 2021, published 2024).

Columns and labels:
[1] = system: ischemic gait disturbance caused by ligation of the iliac artery; assay: Gait improvement in rat ischemic gait disturbance model (iliac artery ligation, treadmill); format: in vivo; conditions: male Wistar rats, 3 mg/kg orally twice a day for 9 days from one day after surgery; measured 3, 7 and 10 days after surgery; p<0.01 vs control
Procedure: Wistar rats (male, 7 week-old) (available from CHARLES RIVER LABORATORIES JAPAN, INC.) were subjected to gait training using a treadmill (MK-680, available from Muromachi Kikai Co., Ltd.) for three consecutive days-6 days before surgery, 5 days before surgery, and 4 days before surgery. On the day before surgery, the pre-value of the walking distance was measured, the animals were divided into groups, and sham surgery or iliac artery ligation surgery described in i) below was performed. […] Walking time was measured 3 days, 7 days and 10 days after the surgery. Based on the measured walking time, the walking distance was calculated. • i) Method of Iliac Artery Ligation Surgery Rats were anesthetized by intraperitoneal administration of 50 mg/kg pentobarbital sodium (Somnopentyl®, Schering-Plough Animal Health). […] The ligation of the iliac artery was performed by the data manager and this information was not disclosed to the gait tester until the study was completed. • ii) Walking Time Measurement Method The speed of the treadmill belt was increased from 15 m/min to 35 m/min by increments of 5 m/min in each 3 minutes, and the time the rat got on the electrical stimulation plate at the rear end of the belt was recorded as the dropout time. […] After the measurement, the dropout time was recorded in the gait test record. […]

[2] = system: gait disturbance in patient with arteriosclerosis obliterans; assay: Improvement of gait disturbance in patients with arteriosclerosis obliterans (placebo-controlled, double-blind study); format: in vivo, human; conditions: Japanese patients, 0.1 to 1.6 mg twice a day for 24 to 36 weeks
Procedure: As a placebo-controlled, double-blind comparative study, Japanese patients with arteriosclerosis obliterans (selected by resting ABI, or the like) received placebo or selexipag (which is compound A) at 0.1 to 1.6 mg twice a day for 24 to 36 weeks (dose adjustment period: 8 to 20 weeks, dose maintenance period: 16 weeks).

[3] = system: FeCl3-induced thrombus in femoral artery; assay: Antithrombotic effect in rat FeCl3-induced thrombus model; format: in vivo; conditions: male Wistar rats
Procedure: Methylcellulose (METOLOSE, SM-400, Shin-Etsu Chemical Co., Ltd.) was dissolved in distilled water, to prepare a 0.5 w/v% methylcellulose aqueous solution. The 0.5 w/v% methylcellulose aqueous solution was added to the compound A, to prepare a 10 mg/mL suspension of compound A in the 0.5 w/v% methylcellulose aqueous solution. • (b) Beraprost Sodium The 0.5 w/v% methylcellulose aqueous solution was added to beraprost sodium, to prepare a 1.0 mg/mL aqueous solution of beraprost sodium in the 0.5 w/v% methylcellulose aqueous solution. • (c) Cilostazol The 0.5 w/v% methylcellulose aqueous solution was added to cilostazol, to prepare a 150 or 50 mg/mL suspension of cilostazol. Urethane (Wako Pure Chemical Industries, Ltd.) was dissolved in saline (Otsuka Pharmaceutical Factory, Inc.) to prepare a solution of 0.3 g/mL. The urethane saline solution was subcutaneously administered to rats at 4 mL per 1 kg of body weight (1.2 g/kg) to anesthetize them. […] Male Wistar rats aged 9 to 10 weeks were used as rats. The abdomen of the rat was incised to expose the duodenum, and drugs were injected 2 to 3 mm downstream from the vicinity of the gastric-duodenal boundary using a 26G injection needle and syringe. The compound A and beraprost sodium were administered at a dose of 1 mL/kg, and cilostazol was administered at a dose of 2 mL/kg. The skin on the right thigh of the rat was incised to expose the femoral artery, and the vein and nerve were dissected. A parafilm was placed under the dissected femoral artery to completely separate the femoral artery, vein, and nerve. A laser Doppler blood flowmeter (ALF21, Advance) probe was placed on the femoral artery to start measuring the blood flow (mL/min/g). 60 minutes after the administration for the compound A-administered group, 30 minutes after the administration for the beraprost sodium-administered group, and 120 minutes after the administration for the cilostazol-administered group, a filter paper (2 mm×5 mm) impregnated with a 10 w/w% FeCl3 aqueous solution was placed on the femoral artery, and changes in blood flow were measured using a biometric data processing system (FLO-WB, Omega Wave Co., Ltd.) and recorded.

Structure (SMILES): CC(C)N(CCCCOCC(=O)NS(C)(=O)=O)c1cnc(-c2ccccc2)c(-c2ccccc2)n1 [compound A, 2-{4-[N-(5,6-diphenylpyrazine-2-yl)-N-isopropylamino]butyloxy}-N-(methylsulfonyl) acetamide]
- improvement of gait disturbance (walking distance, FIG. 1) [1]: significantly improved gait disturbance
- improvement of gait disturbance (treadmill, maximum walking time, Gartner method) [2]: Improvement of patient's gait disturbance was confirmed
- vascular occlusion time ([3]; 10 mg/kg intraduodenal, administration 60 minutes before induction, vehicle control about 12 to 15 minutes): about 22 minutes

Structure (SMILES): O=C1CCc2cc(OCCCCc3nnnn3C3CCCCC3)ccc2N1 [cilostazol]
- vascular occlusion time ([3]; 150 or 50 mg/mL suspension at 2 mL/kg intraduodenal, 120 minutes before induction): Neither dose of cilostazol prolonged the occlusion time

Structure (SMILES): CC#CCC(C)[C@H](O)/C=C/[C@@H]1[C@H]2c3cccc(CCCC(=O)O)c3O[C@H]2C[C@H]1O (mixture of isomers) [beraprost sodium]
- vascular occlusion time ([3]; 0.3 mg/kg intraduodenal, 30 minutes before induction): not prolonged
- reduction in blood pressure ([3]; 0.3 mg/kg intraduodenal, observed over time): 25%
- vascular occlusion time ([3]; 1 mg/kg intraduodenal, administration 30 minutes before induction, vehicle control about 12 to 15 minutes): about 43 minutes
